{
  "source": "patent US20260272907A1",
  "about": "“Therapeutic Tyrosine Kinase Inhibitors for Multiple Sclerosis” (Principia Biopharma Inc., priority 2022, published 2026)",
  "test_system": "patients with relapsing multiple sclerosis",
  "test": "Phase 2b dose-finding study: clinical laboratory tests, ECG, vital signs (PCSAs, ALT levels)",
  "type": "in vivo, human",
  "protocol": "Temperature, pulse rate, respiratory rate, and blood pressure are assessed. The same method for temperature measurement should be used throughout the study. Blood pressure and pulse measurements are assessed in sitting or supine position with a completely automated device. Same position measurements should be used throughout the study for the same participant. Manual techniques are used only if an automated device is not available. Caffeinated drinks to be avoided before blood pressure measurements. Blood pressure and pulse measurements should be preceded by at least 5 minutes of rest for the participant in a quiet setting without distractions (e.g., television, cell phones). Vital signs (to be taken before blood collection for laboratory tests) consist of 1 pulse, 3 blood pressure measurements (3 consecutive blood pressure readings are recorded at intervals of at least 1 minute), and respiratory rate. The average of the 3 blood pressure readings is recorded.\nSingle twelve-lead ECGs are obtained as outlined in the SOA (Table 1) using an ECG machine that automatically calculates the heart rate and measures PR, QRS, QT, and QTc intervals. At least one longer rhythm monitoring recording needs to be part of each ECG testing. The ECG is reviewed by a cardiologist for confirmation of abnormality and clinical evaluation. Refer to Example 1.4E for QTc withdrawal criteria and any additional QTc readings that may be necessary.\nSee Example 1.16 for the list of clinical laboratory tests to be performed and to the SoA (Table 1) for the timing and frequency. The Investigator will review the laboratory report, document this review, and record any clinically relevant changes occurring during the study in the AE section of the eCRF. Clinically significant abnormal laboratory findings are those that are not associated with the underlying disease, unless judged by the Investigator to be more severe than expected for the participant's condition. […] All protocol-required laboratory assessments, as defined in Example 1.16, are conducted in accordance with the laboratory manual and the SoA (Table 1). If laboratory values from non-protocol specified laboratory assessments performed at the institution's local laboratory require a change in participant management or are considered clinically significant by the Investigator (e.g., SAE or AE or dose modification), then the results are recorded in the eCRF.\nThe following definitions are applied to laboratory parameters, ECG, and vital sign results: • Potentially clinically significant abnormality (PCSA) values are defined as abnormal values considered medically important by the Sponsor according to predefined criteria/thresholds based on literature review and are defined by the Sponsor for clinical laboratory tests and vital signs. • Potentially clinically significant abnormality criteria determine which participants had at least 1 PCSA during the on-treatment period, taking into account all evaluations performed during the on-treatment period including unscheduled or repeated evaluations. The number of all such participants is the numerator for the on-treatment PCSA percentage\nAdditional tests are performed at any time during the study as determined necessary by the Investigator or required by local regulations.",
  "data": [
    {"molecule": "C=CC(=O)N1CCC[C@@H](n2c(=O)n(-c3ccc(Oc4ccccc4)cc3)c3c(N)nccc32)C1", "note": "[the BTK inhibitor, (R)-1-(1-acryloylpiperidin-3-yl)-4-amino-3-(4-phenoxyphenyl)-1H-imidazo[4,5-c]pyridin-2(3H)-one]", "values": [
      {"measurement": "ALT level of the participant with AESI", "setting": "30 mg group, Week 8 visit", "value": 105, "unit": "U/L"},
      {"measurement": "ALT level of the participant with AESI", "setting": "30 mg group, within 4 days after the Week 8 visit, back to normal level", "value": 32, "unit": "U/L"},
      {"measurement": "ALT level of the participant with AESI", "setting": "60 mg group, Week 4 visit, ULN 34 U/L", "value": 107, "unit": "U/L"},
      {"measurement": "ALT level of the participant with AESI", "setting": "60 mg group, Week 12, back to normal level", "value": 28, "unit": "U/L"},
      {"measurement": "PCSAs related to vital signs, labs and ECGs: relation to dose", "setting": "reported in multiple treatment groups", "value": "no dose relationship"}
    ]}
  ]
}
